Measurements: PubChem BioAssay AID256 (DTP/NCI, 2004)
Values joined by “and” are separate entries in the source; they are usually repeats but may differ in a detail not shown here. Equal values may be shown once. Inconclusive results and toxic doses are left out.

Tested on: CD2F1 mice, L1210 leukemia ip, survival T/C
Experiment: NCI In Vivo Anticancer Drug Screen. Data for tumor model L1210 Leukemia (intraperitoneal) in CD2F1 (CDF1) mice
Conditions: higher = longer survival
Summary of the method: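 In this screen, transplantable tumors were grown in mice given either the compound or its vehicle. Results were expressed as the treated measurement relative to the control measurement.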

[1] = endpoint: mean survival time, dose: 12.5 mg/kg/injection, schedule: Q01DX005 (ip), vehicle: water
[2] = endpoint: mean survival time, dose: 25.0 mg/kg/injection, schedule: Q01DX005 (ip), vehicle: water
[3] = endpoint: mean survival time, dose: 50.0 mg/kg/injection, schedule: Q01DX005 (ip), vehicle: water
[4] = endpoint: mean survival time, dose: 100.0 mg/kg/injection, schedule: Q01DX005 (ip), vehicle: water
[5] = endpoint: mean survival time, dose: 100.0 mg/kg/injection, schedule: Q04DX003 (ip), vehicle: saline with Tween-80
[6] = endpoint: mean survival time, dose: 200.0 mg/kg/injection, schedule: Q04DX003 (ip), vehicle: saline with Tween-80
[7] = endpoint: mean survival time, dose: 400.0 mg/kg/injection, schedule: Q04DX003 (ip), vehicle: saline with Tween-80
[8] = endpoint: mean survival time, dose: 100.0 mg/kg/injection, schedule: Q04DX002 (ip), vehicle: saline with Tween-80
[9] = endpoint: mean survival time, dose: 200.0 mg/kg/injection, schedule: Q04DX002 (ip), vehicle: saline with Tween-80
[10] = endpoint: mean survival time, dose: 400.0 mg/kg/injection, schedule: Q04DX002 (ip), vehicle: saline with Tween-80
[11] = endpoint: mean survival time, dose: 25.0 mg/kg/injection, schedule: Q01DX009 (ip), vehicle: saline with Tween-80
[12] = endpoint: mean survival time, dose: 25.0 mg/kg/injection, schedule: Q01DX009 (ip), vehicle: saline
[13] = endpoint: mean survival time, dose: 50.0 mg/kg/injection, schedule: Q01DX009 (ip), vehicle: saline with Tween-80
[14] = endpoint: mean survival time, dose: 50.0 mg/kg/injection, schedule: Q01DX009 (ip), vehicle: saline
[15] = endpoint: mean survival time, dose: 100.0 mg/kg/injection, schedule: Q01DX009 (ip), vehicle: saline with Tween-80
[16] = endpoint: mean survival time, dose: 100.0 mg/kg/injection, schedule: Q01DX009 (ip), vehicle: saline
[17] = endpoint: mean survival time, dose: 200.0 mg/kg/injection, schedule: Q01DX009 (ip), vehicle: saline with Tween-80
[18] = endpoint: mean survival time, dose: 200.0 mg/kg/injection, schedule: Q01DX009 (ip), vehicle: saline
[19] = endpoint: mean survival time, dose: 400.0 mg/kg/injection, schedule: Q01DX009 (ip), vehicle: saline with Tween-80

Nc1nc2c(ncn2C2CC(O)C(CO)O2)c(=O)n1N (stereo not given)
T/C (endpoint: mean survival time, dose: 75.0 mg/kg/injection, schedule: Q01DX001 (ip), vehicle: saline): 97 % of control
T/C (endpoint: mean survival time, dose: 150.0 mg/kg/injection, schedule: Q01DX001 (ip), vehicle: saline): 100 % of control

Cc1cn(C2CC3OP(N(C)C)OCC3O2)c(=O)[nH]c1=O (stereo not given)
T/C [1]: 100 % of control
T/C [2]: 101 % of control
T/C [3]: 98 % of control
T/C [4]: 105 % of control
T/C (endpoint: mean survival time, dose: 200.0 mg/kg/injection, schedule: Q01DX005 (ip), vehicle: water): 101 % of control

CNC(=S)N(C1CCCCC1)C1CCCCC1
T/C [5]: 111 % of control
T/C [6]: 96 % of control
T/C [7]: 94 % of control

OCCNCc1ccc(OCc2ccccc2)c(OCc2ccccc2)c1
T/C (endpoint: median survival time, dose: 50.0 mg/kg/injection, schedule: Q04DX003 (ip), vehicle: saline with Tween-80): 90 % of control
T/C (endpoint: median survival time, dose: 100.0 mg/kg/injection, schedule: Q04DX003 (ip), vehicle: saline with Tween-80): 90 % of control

COc1c(C)c2c(c3c1CC(=O)O3)C(=O)OC2
T/C [8]: 108 % of control
T/C [9]: 112 % of control
T/C [10]: 112 % of control

O=C(O)CSc1c(Cl)c(=O)oc2ccc(Cl)cc12
T/C (endpoint: median survival time, dose: 6.25 mg/kg/injection, schedule: Q01DX009 (ip), vehicle: Klucel (hydroxypropylcellulose) (HPC)): 101 % of control
T/C (endpoint: median survival time, dose: 12.5 mg/kg/injection, schedule: Q01DX009 (ip), vehicle: Klucel (hydroxypropylcellulose) (HPC)): 101 % of control
T/C (endpoint: median survival time, dose: 25.0 mg/kg/injection, schedule: Q01DX009 (ip), vehicle: Klucel (hydroxypropylcellulose) (HPC)): 97 % of control
T/C (endpoint: median survival time, dose: 50.0 mg/kg/injection, schedule: Q01DX009 (ip), vehicle: Klucel (hydroxypropylcellulose) (HPC)): 94 % of control
T/C (endpoint: median survival time, dose: 100.0 mg/kg/injection, schedule: Q01DX009 (ip), vehicle: Klucel (hydroxypropylcellulose) (HPC)): 108 % of control
T/C (endpoint: median survival time, dose: 200.0 mg/kg/injection, schedule: Q01DX009 (ip), vehicle: Klucel (hydroxypropylcellulose) (HPC)): 104 % of control

O=C(O)Cn1nnc2ccccc21
T/C [11]: 100 % of control
T/C [12]: 102 % of control
T/C [13]: 97 % of control
T/C [14]: 102 % of control
T/C [15]: 97 % of control
T/C [16]: 98 % of control
T/C [17]: 100 % of control
T/C [18]: 100 % of control

CC(=O)c1ccc(N=Nc2c(N)nc(N)nc2N)cc1
T/C [15]: 92 % of control
T/C [5]: 89 % of control
T/C [17]: 97 % of control
T/C [6]: 87 % of control
T/C [19]: 98 % of control
T/C [7]: 89 % of control

C[C@@H]1CC2=CC(=O)CC[C@]2(C)[C@H]2CC[C@]3(C)[C@@H](O)CC[C@H]3[C@H]12
T/C [5]: 98 % of control
T/C [6]: 119 % of control
T/C [7]: 98 % of control

CC(=O)NC(CO)C1C(CO)OC(n2ccc(=O)[nH]c2=O)C1O (stereo not given)
T/C (endpoint: mean survival time, dose: 6.25 mg/kg/injection, schedule: Q01DX005 (ip), vehicle: water): 101 % of control
T/C [1]: 101 % of control
T/C [2]: 98 % of control
T/C [3]: 103 % of control
T/C [4]: 96 % of control

CC(C)C(N)C(=O)Nc1nncs1 (stereo not given)
T/C [12]: 103 % of control
T/C [14]: 110 % of control
T/C [16]: 166 % of control
T/C [18]: 117 % of control and 97 % of control
T/C (endpoint: mean survival time, dose: 400.0 mg/kg/injection, schedule: Q01DX009 (ip), vehicle: saline): 89 % of control and 90 % of control
T/C (endpoint: median survival time, dose: 12.5 mg/kg/injection, schedule: Q01DX009 (ip), vehicle: saline): 94 % of control
T/C (endpoint: median survival time, dose: 25.0 mg/kg/injection, schedule: Q01DX009 (ip), vehicle: saline): 109 % of control and 112 % of control
T/C (endpoint: median survival time, dose: 50.0 mg/kg/injection, schedule: Q01DX009 (ip), vehicle: saline): 151 % of control
T/C (endpoint: median survival time, dose: 100.0 mg/kg/injection, schedule: Q01DX009 (ip), vehicle: saline): 158 % of control
T/C (endpoint: median survival time, dose: 400.0 mg/kg/injection, schedule: Q01DX009 (ip), vehicle: saline): 95 % of control

N#CC(OC(=O)c1ccccc1)c1cccc([N+](=O)[O-])c1 (stereo not given)
T/C [15]: 98 % of control
T/C [5]: 101 % of control
T/C [17]: 96 % of control
T/C [6]: 96 % of control
T/C [7]: 100 % of control

COC(=O)[C@@]12OC[C@]34[C@H]([C@@H](O)[C@@H]1O)[C@@]1(C)CC(=O)C(OC(=O)CC(=O)OC5=C(C)[C@@H]6C[C@H]7OC(=O)[C@H](OC(=O)/C=C(\C)C(C)C)[C@H]8[C@]9(C(=O)OC)OC[C@]78[C@H]([C@@H](O)[C@@H]9O)[C@@]6(C)CC5=O)=C(C)[C@@H]1C[C@H]3OC(=O)[C@H](OC(=O)/C=C(\C)C(C)C)[C@@H]24
T/C (endpoint: median survival time, dose: 0.37 mg/kg/injection, schedule: Q01DX009 (ip), vehicle: saline + Tween-80 + alcohol): 113 % of control
T/C (endpoint: median survival time, dose: 0.38 mg/kg/injection, schedule: Q01DX009 (ip), vehicle: saline + Tween-80 + alcohol): 112 % of control
T/C (endpoint: median survival time, dose: 0.75 mg/kg/injection, schedule: Q01DX009 (ip), vehicle: saline + Tween-80 + alcohol): 115 % of control and 121 % of control
T/C (endpoint: median survival time, dose: 1.5 mg/kg/injection, schedule: Q01DX009 (ip), vehicle: saline + Tween-80 + alcohol): 121 % of control and 112 % of control

O=C(O)C1C(c2ccccc2)=C(c2ccccc2)c2ccccc21 (stereo not given)
T/C [11]: 94 % of control
T/C [13]: 93 % of control
T/C [15]: 98 % of control

FC(F)(F)/C([S-])=C(/[S-])C(F)(F)F.[Ni].[c-]1[c-][c-][cH-][c-]1
T/C (endpoint: mean survival time, dose: 9.5 mg/kg/injection, schedule: Q01DX001 (ip), vehicle: other): 92 % of control
T/C (endpoint: mean survival time, dose: 19.0 mg/kg/injection, schedule: Q01DX001 (ip), vehicle: other): 93 % of control

CCOP(=O)(N1CC1(C)C)N1CC1(C)C (stereo not given)
T/C (endpoint: mean survival time, dose: 5.0 mg/kg/injection, schedule: Q01DX009 (ip), vehicle: saline): 104 % of control
T/C (endpoint: mean survival time, dose: 10.0 mg/kg/injection, schedule: Q01DX009 (ip), vehicle: saline): 114 % of control
T/C (endpoint: mean survival time, dose: 30.0 mg/kg/injection, schedule: Q01DX009 (ip), vehicle: saline): 162 % of control
T/C [14]: 225 % of control
T/C (endpoint: mean survival time, dose: 80.0 mg/kg/injection, schedule: Q01DX009 (ip), vehicle: saline): 307 % of control
T/C (endpoint: mean survival time, dose: 120.0 mg/kg/injection, schedule: Q01DX009 (ip), vehicle: saline): 102 % of control

Cc1cc(NCCCCCCCCNc2cc(C)nc3cc(N(C)C)ccc23)c2ccc(N(C)C)cc2n1
T/C (endpoint: median survival time, dose: 1.57 mg/kg/injection, schedule: Q01DX009 (ip), vehicle: distilled water + Tween-80 + alcohol): 108 % of control
T/C (endpoint: median survival time, dose: 3.12 mg/kg/injection, schedule: Q01DX009 (ip), vehicle: distilled water + Tween-80 + alcohol): 118 % of control
T/C (endpoint: median survival time, dose: 3.12 mg/kg/injection, schedule: Q01DX009 (ip), vehicle: distilled water + Tween-80): 115 % of control
T/C (endpoint: median survival time, dose: 6.25 mg/kg/injection, schedule: Q01DX009 (ip), vehicle: distilled water + Tween-80): 123 % of control
T/C (endpoint: median survival time, dose: 12.5 mg/kg/injection, schedule: Q01DX009 (ip), vehicle: distilled water + Tween-80): 123 % of control

CCCC(CC)C(=O)CC1CCCCC1 (stereo not given)
T/C [5]: 105 % of control
T/C [6]: 94 % of control
T/C [7]: 98 % of control

CCOP(=O)(OCC)C1=C(CC)CC1
T/C (endpoint: mean survival time, dose: 75.0 mg/kg/injection, schedule: Q01DX001 (ip), vehicle: other): 98 % of control

COC(=O)/C=C\C(=O)O
T/C [14]: 102 % of control
T/C [16]: 100 % of control

CCOC(=O)NC(C)(C)CN(C(=O)OCC)C(C)(C)CO
T/C [14]: 102 % of control
T/C [16]: 98 % of control

O[Si](c1ccccc1)(c1ccccc1)c1ccccc1
T/C [5]: 102 % of control
T/C [6]: 97 % of control
T/C [7]: 92 % of control

CC1C=C(Br)C(=O)C(n2cnc3c(=O)n(C)c(=O)n(C)c32)O1 (stereo not given)
T/C (endpoint: mean survival time, dose: 12.5 mg/kg/injection, schedule: Q01DX005 (ip), vehicle: distilled water + Tween-80): 100 % of control
T/C (endpoint: mean survival time, dose: 25.0 mg/kg/injection, schedule: Q01DX005 (ip), vehicle: distilled water + Tween-80): 97 % of control

COC(=O)C(CCC1CCCCC1)CC1CCCCC1 (stereo not given)
T/C (endpoint: mean survival time, dose: 100.0 mg/kg/injection, schedule: Q04DX003 (ip), vehicle: acetone): 108 % of control
T/C (endpoint: mean survival time, dose: 200.0 mg/kg/injection, schedule: Q04DX003 (ip), vehicle: acetone): 102 % of control
T/C (endpoint: mean survival time, dose: 400.0 mg/kg/injection, schedule: Q04DX003 (ip), vehicle: acetone): 108 % of control

Cc1cc(=O)c(C(=O)O)c(C)[nH]1
T/C [8]: 86 % of control
T/C [9]: 86 % of control
T/C [10]: 91 % of control

CN(C)c1ccc(/C=N/NC(=O)c2ccccc2N)cc1
T/C [15]: 92 % of control
T/C [17]: 91 % of control
T/C [19]: 91 % of control
